Results as given in patent US7763615B2, “Ecteinascidin analogs for use as antitumour agents” (priority 2001, dated 2010).
Like-named read-outs stand apart in the source and are kept apart here.

Assays:
(HEPG2) = conditions: human, 24 h, 30 μM
[1] = test system: FDC-P1, normal mouse myelogeous stem cells; conditions: 24 h
SK-OV3 = experiment: Inhibition of cells growth by colorimetric assay (SRB), SK-OV3; type: cell-based
How it was run: (§1)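 Absorbance at 490 nm of sulphorhodamine B bound by TCA-fixed cells gives the growth readout after 48 h continuous exposure to test samples (10 to 10^−8 μg/ml). Cells were seeded at 5×10^3 per well in RPMI 1640/10% FBS and allowed 18 h to attach first.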

[2] = s9, 60 min, 1 μM
[3] = test system: H9c2 (2-1), normal rat cardiac muscle cells; conditions: 24 h
[4] = test system: NRK-52E, normal rat kidney cells; conditions: 24 h
K562 = experiment: cells; type: cell-based; conditions: for CC50: read-out: LC50
How it was run: as §1

DU145 = experiment: cells; type: cell-based; conditions: for CC50: read-out: LC50
How it was run: as §1

LOVO = experiment: cells; type: cell-based; conditions: for CC50: read-out: LC50
How it was run: as §1

IGROV = experiment: cells; type: cell-based
How it was run: as §1

MEL-28 = experiment: cells; type: cell-based; conditions: for CC50: read-out: LC50
How it was run: as §1

PANC-1 = experiment: cells; type: cell-based; conditions: for CC50: read-out: LC50
How it was run: as §1

LNCAP = experiment: cells; type: cell-based
How it was run: as §1

IGROV-ET = experiment: cells; type: cell-based; conditions: IGROV-ET; for CC50: read-out: LC50
How it was run: as §1

SK-BR3 = experiment: cells; type: cell-based; conditions: for CC50: read-out: LC50
How it was run: as §1

LOVO-DOX = experiment: cells; type: cell-based; conditions: for GI50 / TGI: LOVO-DOX
How it was run: as §1

A549 = experiment: cells; type: cell-based; conditions: for GI50: read-out: GI50
How it was run: as §1

HT29 = experiment: cells; type: cell-based
How it was run: as §1

physchem = conditions: pH 7.4, log D n-Octanol-Dulbecco's PBS pH 7.4
[5] = test system: L8, normal rat skeletal muscle cells; conditions: 24 h
CYP2D6 = CYP2D6 (Homo sapiens, UniProt P10635); experiment: in vitro; conditions: CYP2D6 (% inhibition)
Protocol: For CYP2D6 inhibition assay, the compound are tested at 10 μM in duplicate with a 0.25% final concentration of both methanol and acetonitrile in presence of the fluorescent substrate AMMC (3-[2-N,N-diethyl-N-methylammonium)ethyl]-7-methoxy-4-methylcoumarin) at the concentration of 1.5 μM). The conversion of the AMMC in AHMC (3-[2-N,N-diethyl-N-methylammonium)ethyl]-7-hydroxy-4-methylcoumarin) is determined spectrofluorimetry after incubation with the enzyme during 450 min at 37° C.
For both assays, the fluorescent intensity measured at t=0 is subtracted from that measured after the appropriate incubation time. The ratio of signal-to-noise is calculated by comparing the fluorescence in incubations containing the test compound to the control samples containing the same solvent vehicle. The percent of control activity is calculated and reported as percent inhibition.

CYP3A4 = CYP3A4 (Homo sapiens, UniProt P08684); conditions: 30 min, 10 µM
H-MEC-1 = experiment: Inhibition of cells growth by colorimetric assay (SRB), H-MEC-1; type: cell-based; conditions: for CC50: Homo sapiens
How it was run: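 Cells plated at 5×10^3 per well; 18 h later, test samples added across 10 to 10^−8 μg/ml; incubation continued 48 h at 37° C, 5% CO2. Cells then fixed with cold TCA, stained with SRB, dye solubilised in Tris, and optical density measured at 490 nm.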

[6] = test system: AML-12, normal mouse liver cells; conditions: 24 h
P388 lymphoma = conditions: mice, U.S. Pat. No. 5,149,804; cited from earlier work
Lewis lung carcinoma = conditions: mice, U.S. Pat. No. 5,149,804; cited from earlier work
B16 melanoma = conditions: mice, U.S. Pat. No. 5,149,804; cited from earlier work
[7] = Homo sapiens, DU-145, 48 h, DU145, 48 hours exposure, SRB
[8] = Homo sapiens, 48 h, 48 hours exposure, SRB
[9] = Homo sapiens, PANC-1, 48 h, PANC-1, 48 hours exposure, SRB
[10] = Homo sapiens, LNCaP, 48 h, 48 hours exposure, SRB
[11] = H-MEC-1, 48 hours exposure, SRB

Chain of CYP3A4 (P08684 whole entry): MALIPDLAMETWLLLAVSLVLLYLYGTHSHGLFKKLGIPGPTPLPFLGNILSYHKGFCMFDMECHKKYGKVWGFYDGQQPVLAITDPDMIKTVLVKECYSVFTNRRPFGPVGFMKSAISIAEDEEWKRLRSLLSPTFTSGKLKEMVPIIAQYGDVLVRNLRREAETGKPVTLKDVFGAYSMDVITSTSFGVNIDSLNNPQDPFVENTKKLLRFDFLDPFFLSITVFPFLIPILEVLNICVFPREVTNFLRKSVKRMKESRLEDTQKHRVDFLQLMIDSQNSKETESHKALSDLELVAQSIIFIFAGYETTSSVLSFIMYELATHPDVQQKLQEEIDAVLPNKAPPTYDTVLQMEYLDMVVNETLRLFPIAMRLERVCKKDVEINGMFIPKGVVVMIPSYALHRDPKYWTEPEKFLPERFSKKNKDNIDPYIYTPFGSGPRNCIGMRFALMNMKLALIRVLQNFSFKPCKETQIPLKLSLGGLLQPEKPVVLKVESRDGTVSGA
Chain of CYP2D6 (P10635 whole entry): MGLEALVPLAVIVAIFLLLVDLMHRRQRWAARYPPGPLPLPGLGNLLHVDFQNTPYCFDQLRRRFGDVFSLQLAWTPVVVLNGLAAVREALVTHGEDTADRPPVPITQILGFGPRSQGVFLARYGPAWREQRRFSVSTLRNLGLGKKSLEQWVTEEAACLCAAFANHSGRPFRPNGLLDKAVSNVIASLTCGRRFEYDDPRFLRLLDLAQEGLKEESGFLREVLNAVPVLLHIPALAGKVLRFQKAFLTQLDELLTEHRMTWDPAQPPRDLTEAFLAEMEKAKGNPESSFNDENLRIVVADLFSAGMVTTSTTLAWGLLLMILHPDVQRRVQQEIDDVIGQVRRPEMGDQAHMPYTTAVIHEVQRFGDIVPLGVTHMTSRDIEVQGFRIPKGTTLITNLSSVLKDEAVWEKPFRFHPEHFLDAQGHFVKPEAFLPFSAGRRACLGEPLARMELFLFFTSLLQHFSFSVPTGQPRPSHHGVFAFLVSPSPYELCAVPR

For COc1c(C)cc2c(c1O)[C@@H]1C3[C@@H]4SC[C@]5(NC(C)Cc6c5[nH]c5ccc(F)cc65)C(=O)COC[C@@H](c5c6c(c(C)c(OC(C)=O)c54)OCO6)N3[C@@H](O)[C@H](C2)N1C (some centres unmarked) [Compound 41], the “Cell Viability (% inhibition)” value ((HEPG2)) was 16 % inhibition, the Myelo [1] was 1.39E−07 and the GI50 (SK-OV3; Homo sapiens, SK-OV-3, 48 h, SK-OV3, 48 hours exposure, SRB) was 3.85 nM. For the same compound, the CC50 (SK-OV3; Homo sapiens, SK-OV-3, 48 h, read-out: LC50, SK-OV3, 48 hours exposure, SRB) was 12.7 µM, the TGI (SK-OV3; SK-OV3, 48 hours exposure, SRB) was 9.82E−09 Molar and the “Human Liver S9 Metabolic Stability (% remaining)” value [2] was 7 % remaining. It also gave a Heart [3] of 3.49E−08, a Kidney [4] of 1.89E−08 and a GI50 (K562; K562, 48 hours exposure, SRB) of 0.11 nM. The TGI (K562; K562, 48 hours exposure, SRB) was 2.19E−09 Molar, the CC50 (K562; K562, 48 hours exposure, SRB) was 5.57 nM and the GI50 (DU145; [7]) was 3.49 nM. It also gave an IC (TGI) (DU145; [7]) of 8.37 nM, a CC50 (DU145; DU145, 48 hours exposure, SRB) of 9.9 µM and an IC (TGI) (LOVO; Homo sapiens, LoVo, 48 h, 48 hours exposure, SRB) of 0.0244 µM. The GI50 (LOVO; LOVO, 48 hours exposure, SRB) was 4.42 nM, the CC50 (LOVO; LOVO, 48 hours exposure, SRB) was 410 nM and the GI50 (IGROV; [8]) was 1.94 nM. It also gave an IC (TGI) (IGROV; [8]) of 4.14 nM, a CC50 (IGROV; Homo sapiens, 48 h, read-out: LC50, IGROV, 48 hours exposure, SRB) of 8.86 nM and a GI50 (MEL-28; MEL-28, 48 hours exposure, SRB) of 6.72 nM. It also gave a TGI (MEL-28; MEL-28, 48 hours exposure, SRB) of 2.66E−08 Molar, a CC50 (MEL-28; MEL-28, 48 hours exposure, SRB) of 102 nM and a GI50 (PANC-1; [9]) of 10.8 nM. It also gave an IC (TGI) (PANC-1; [9]) of 0.0489 µM, a CC50 (PANC-1; PANC-1, 48 hours exposure, SRB) of 506 nM and a GI50 (LNCAP; [10]) of 2.62 nM. The IC (TGI) (LNCAP; [10]) was 5.17 nM, the CC50 (LNCAP; Homo sapiens, LNCaP, 48 h, read-out: LC50, LNCAP, 48 hours exposure, SRB) was 10.2 nM and the GI50 (IGROV-ET; 48 hours exposure, SRB) was 3.14 nM. It also gave a TGI (IGROV-ET; 48 hours exposure, SRB) of 2.00E−08 Molar, a CC50 (IGROV-ET; 48 hours exposure, SRB) of 3.86 µM and a GI50 (SK-BR3; SK-BR3, 48 hours exposure, SRB) of 2.33 nM. For the same compound, the TGI (SK-BR3; SK-BR3, 48 hours exposure, SRB) was 6.86E−09 Molar, the CC50 (SK-BR3; SK-BR3, 48 hours exposure, SRB) was 36.3 nM and the GI50 (LOVO-DOX; [8]) was 30.5 nM. For the same compound, the CC50 (LOVO-DOX; Homo sapiens, 48 h, read-out: LC50, LOVO-DOX, 48 hours exposure, SRB) was 12.7 µM, the TGI (LOVO-DOX; 48 hours exposure, SRB) was 9.99E−08 Molar and the GI50 (A549; Homo sapiens, A549, 48 h, A549, 48 hours exposure, SRB) was 19.8 nM. The IC (TGI) (A549; Homo sapiens, A549, 48 h, A549, 48 hours exposure, SRB, read-out: TGI) was 0.0468 µM, the CC50 (A549; Homo sapiens, A549, 48 h, read-out: LC50, A549, 48 hours exposure, SRB) was 110 nM and the GI50 (HT29; HT29, 48 hours exposure, SRB) was 5.66 nM. The TGI (HT29; HT29, 48 hours exposure, SRB) was 6.07E−08 Molar, the CC50 (HT29; Homo sapiens, HT-29, 48 h, read-out: LC50, HT29, 48 hours exposure, SRB) was 12.7 µM and the logD at 60 min (physchem) was > 4.5. For the same compound, the “Solubility Dulbecco's PBS pH 7.4” value was <1 est μM, the Skeletal [5] was 2.39E−07 and the inhibition at 450 min, 10 µM (CYP2D6) was 16%. For the same compound, the “CYP3A4 (% inhibition)” value (CYP3A4) was 22 % inhibition, the GI50 (H-MEC-1; [11]) was 4.68 nM and the TGI (H-MEC-1; [11]) was 4.08E−08 Molar. For the same compound, the CC50 (H-MEC-1; HMEC-1, 48 h, read-out: LC50, H-MEC-1, 48 hours exposure, SRB) was 12.7 µM and the Liver [6] was 6.30E−08.
Work on COc1c(C)cc2c(c1O)[C@@H]1C3[C@@H]4SC[C@]5(NC(C)Cc6c5[nH]c5ccccc65)C(=O)COC[C@@H](c5c6c(c(C)c(OC(C)=O)c54)OCO6)N3[C@@H](O)[C@H](C2)N1C (some centres unmarked) [Compound 43] yielded a Myelo [1] of 6.23E−08, a GI50 (SK-OV3; SK-OV3) of 3.39 nM and a TGI (SK-OV3; SK-OV3) of 7.17E−09. For the same compound, the CC50 (SK-OV3; read-out: LC50, SK-OV3) was 0.013 µM, the “Human Liver S9 Metabolic Stability (% remaining)” value [2] was 3 % remaining and the Heart [3] was 9.42E−08. The Kidney [4] was 4.38E−08, the GI50 (K562; Homo sapiens, K562, K562) was 2.51 nM and the TGI (K562; K562) was 4.88E−09. For the same compound, the CC50 (K562; K562) was 9.49 nM, the TGI (DU145; DU145) was 9.04E−09 and the GI50 (DU145; Homo sapiens, DU-145, DU145) was 4.76 nM. For the same compound, the CC50 (DU145; DU145) was 0.013 µM, the GI50 (LOVO; LOVO) was 3.5 nM and the TGI (LOVO; LOVO) was 8.32E−09. For the same compound, the CC50 (LOVO; LOVO) was 38.9 nM, the TGI (IGROV) was 5.20E−09 and the GI50 (IGROV; Homo sapiens) was 2.73 nM. For the same compound, the CC50 (IGROV; read-out: LC50) was 9.88 nM, the GI50 (MEL-28; MEL-28) was 308 nM and the TGI (MEL-28; MEL-28) was 5.81E−07. The CC50 (MEL-28; MEL-28) was 1090 nM, the GI50 (PANC-1; PANC-1) was 5.28 nM and the TGI (PANC-1; PANC-1) was 1.15E−08. The CC50 (PANC-1; PANC-1) was 39 nM, the GI50 (LNCAP; LNCAP) was 2.02 nM and the TGI (LNCAP; LNCAP) was 3.76E−09. For the same compound, the CC50 (LNCAP; read-out: LC50, LNCAP) was 7 nM, the GI50 (IGROV-ET) was 9.1 nM and the TGI (IGROV-ET) was 2.35E−08. The CC50 (IGROV-ET) was 13 µM, the GI50 (SK-BR3; SK-BR3) was 3.77 nM and the TGI (SK-BR3; SK-BR3) was 8.65E−09. For the same compound, the CC50 (SK-BR3; SK-BR3) was 41.1 nM, the CC50 (LOVO-DOX; Homo sapiens, read-out: LC50, LOVO-DOX) was 13 µM and the GI50 (LOVO-DOX) was 39.8 nM. For the same compound, the TGI (LOVO-DOX) was 1.06E−07, the TGI (A549; A549) was 1.08E−08 and the GI50 (A549; A549) was 5.12 nM. The CC50 (A549; read-out: LC50, A549) was 32.8 nM, the TGI (HT29; HT29) was 1.04E−07 and the GI50 (HT29; Homo sapiens, HT-29, HT29) was 46.4 nM. For the same compound, the CC50 (HT29; Homo sapiens, HT-29, read-out: LC50, HT29) was 13 µM, the logD at 60 min (physchem) was > 4.5 and the “Solubility Dulbecco's PBS pH 7.4” value was 5.85 μM. For the same compound, the Skeletal [5] was 1.60E−07, the “CYP3A4 (% inhibition)” value (CYP3A4) was 15 % inhibition and the GI50 (H-MEC-1; H-MEC-1) was 11.8 nM. The TGI (H-MEC-1; H-MEC-1) was 1.77E−07, the CC50 (H-MEC-1; HMEC-1, read-out: LC50, H-MEC-1) was 13 µM and the Liver [6] was 7.57E−08.
In the case of COc1c(C)cc2c(c1O)[C@H]1N[C@@H](C2)[C@H](O)N2[C@H]1[C@@H]1SC[C@]3(NCCc4c3[nH]c3ccccc43)C(=O)OC[C@H]2c2c3c(c(C)c(OC(C)=O)c21)OCO3 [Ecteinascidin 722, ecteinascidin 722], the “in vivo protection against P388 lymphoma” value (P388 lymphoma) is listed as “protect mice in vivo at very low concentrations”, the “in vivo protection against Lewis lung carcinoma” value (Lewis lung carcinoma) is listed as “protect mice in vivo at very low concentrations” and the “in vivo protection against B16 melanoma” value (B16 melanoma) is listed as “protect mice in vivo at very low concentrations”.
In the case of COc1c(C)cc2c(c1O)[C@@H]1C3[C@@H]4SC[C@]5(NCCc6c5[nH]c5ccccc65)C(=O)OC[C@@H](c5c6c(c(C)c(OC(C)=O)c54)OCO6)N3[C@@H](O)[C@H](C2)N1C (some centres unmarked) [Ecteinascidin 736, ecteinascidin 736], the “in vivo protection against P388 lymphoma” value (P388 lymphoma) is listed as “protect mice in vivo at very low concentrations”, the “in vivo protection against Lewis lung carcinoma” value (Lewis lung carcinoma) is listed as “protect mice in vivo at very low concentrations” and the “in vivo protection against B16 melanoma” value (B16 melanoma) is listed as “protect mice in vivo at very low concentrations”.
